Reference: ChEMBL document CHEMBL4033626, “Design, synthesis, and structure-activity relationship study of halogen containing 2-benzylidene-1-indanone derivatives for inhibition of LPS-stimulated ROS production in RAW 264.7 macrophages” (Eur J Med Chem, 2017)
Activity calls are given as the source filed them. The rule behind the calls is not given here.

Tests used:
RAW264.7 [1] = assay: Inhibition of LPS-stimulated ROS production in mouse RAW264.7 cells preincubated for 1 hr followed by LPS stimulation after 24 hrs by CMH2DCFDA probe-based fluorescence assay
RAW264.7 [2] = assay: Cytotoxicity against mouse RAW264.7 cells at 10 uM after 24 hrs by MTS assay; type: cell-based; conditions: raw264.7, 24 h
[3] = Cytotoxicity against mouse RAW264.7 cells assessed as cell viability at 10 uM after 24 hrs by MTS assay relative to control; type: cell-based; conditions: read-out: Activity
Mus musculus = species on record: Mus musculus; assay: Inhibition of LPS-stimulated NADPH oxidase activation in mouse RAW264.7 cells assessed as decrease in superoxide formation at 1 uM using NADPH as substrate preincubated for 1 hr followed by LPS stimulation for 24 hrs and subsequent substrate addition after 30 mins by lucigenin-based chemiluminescence assay; type: cell-based

| SMILES | IC50 (RAW264.7 [1]) | Activity (RAW264.7 [2]) | viability at 24 h, 10 µM [3] | inhibition (Mus musculus) |
| --- | --- | --- | --- | --- |
| O=C1/C(=C/c2ccccc2Br)Cc2cc(O)ccc21 | 8.18 µM | Non-Toxic |  |  |
| O=C1/C(=C/c2ccccc2Br)Cc2ccccc21 | > 10 µM | Non-Toxic |  |  |
| O=C1/C(=C/c2ccc(F)cc2)Cc2cccc(O)c21 | 5.06 µM | Non-Toxic |  |  |
| O=C1/C(=C/c2cccc(F)c2)Cc2cccc(O)c21 | 5.61 µM | Non-Toxic |  |  |
| O=C1/C(=C/c2ccc(Br)cc2)Cc2cccc(O)c21 | > 10 µM | Non-Toxic |  |  |
| O=C1/C(=C/c2ccc(C(F)(F)F)cc2)Cc2ccccc21 | > 10 µM | Non-Toxic |  |  |
| O=C1/C(=C/c2ccc(Br)cc2)Cc2c(O)cccc21 | > 10 µM | Non-Toxic |  |  |
| O=C1/C(=C/c2ccc(Br)cc2)Cc2ccccc21 | > 10 µM | Non-Toxic |  |  |
| O=C1/C(=C/c2ccc(C(F)(F)F)cc2)Cc2cccc(O)c21 | 3.89 µM | Non-Toxic |  |  |
| O=C1/C(=C/c2cccc(Br)c2)Cc2ccccc21 | > 10 µM | Non-Toxic |  |  |
| O=C1/C(=C/c2ccccc2C(F)(F)F)Cc2c(O)cccc21 | > 10 µM | Non-Toxic |  |  |
| O=C1/C(=C/c2cccc(F)c2)Cc2c(O)cccc21 | > 10 µM | Non-Toxic |  |  |
| O=C1/C(=C/c2ccccc2F)Cc2cccc(O)c21 | 3.82 µM | Non-Toxic |  |  |
| O=C1/C(=C/c2ccccc2F)Cc2ccccc21 | > 10 µM | Non-Toxic |  |  |
| O=C1/C(=C/c2cccc(Br)c2)Cc2cccc(O)c21 | > 10 µM | Non-Toxic |  |  |
| O=C1/C(=C/c2ccc(F)cc2)Cc2ccccc21 | > 10 µM | Non-Toxic |  |  |
| O=C1/C(=C/c2ccccc2Br)Cc2c(O)cccc21 | > 10 µM | Non-Toxic |  |  |
| O=C1/C(=C/c2ccccc2C(F)(F)F)Cc2ccccc21 | > 10 µM | Non-Toxic |  |  |
| O=C1/C(=C/c2ccccc2)Cc2ccccc21 | > 10 µM |  | < 90% |  |
| O=C1/C(=C/c2ccc(F)cc2)Cc2c(O)cccc21 | > 10 µM | Non-Toxic |  |  |
| O=C1/C(=C/c2cccc(Br)c2)Cc2c(O)cccc21 | > 10 µM | Non-Toxic |  |  |
| O=C1/C(=C/c2ccccc2Br)Cc2cccc(O)c21 | > 10 µM | Non-Toxic |  |  |
| O=C1/C(=C/c2ccccc2C(F)(F)F)Cc2cccc(O)c21 | 1.94 µM | Non-Toxic |  |  |
| O=C1/C(=C/c2ccccc2F)Cc2c(O)cccc21 | > 10 µM | Non-Toxic |  |  |

The next lines start with results.

| IC50 (RAW264.7 [1]) | SMILES | Activity (RAW264.7 [2]) | viability at 24 h, 10 µM [3] | inhibition (Mus musculus) |
| --- | --- | --- | --- | --- |
| > 10 µM | O=C1/C(=C/c2cccc(F)c2)Cc2ccccc21 | Non-Toxic |  |  |
| > 10 µM | O=C1/C(=C/c2cccc(OC(F)(F)F)c2)Cc2ccccc21 | Non-Toxic |  |  |
| > 10 µM | O=C1/C(=C/c2cccc(OC(F)(F)F)c2)Cc2c(O)cccc21 | Non-Toxic |  |  |
| > 10 µM | O=C1/C(=C/c2ccccc2F)Cc2cc(O)ccc21 | Non-Toxic |  |  |
| > 10 µM | O=C1/C(=C/c2ccc(OC(F)(F)F)cc2)Cc2ccc(O)cc21 | Non-Toxic |  |  |
| 8.01 µM | O=C1/C(=C/c2cccc(OC(F)(F)F)c2)Cc2cc(O)ccc21 | Non-Toxic |  |  |
| > 10 µM | O=C1/C(=C/c2ccc(F)cc2)Cc2ccc(O)cc21 | Non-Toxic |  |  |
| > 10 µM | O=C1/C(=C/c2ccccc2OC(F)(F)F)Cc2c(O)cccc21 | Non-Toxic |  |  |
| 4.27 µM | O=C1/C(=C/c2ccc(Br)cc2)Cc2ccc(O)cc21 |  | < 90% |  |
| 7.27 µM | O=C1/C(=C/c2ccccc2OC(F)(F)F)Cc2ccccc21 | Non-Toxic |  |  |
| 3.15 µM | O=C1/C(=C/c2ccc(OC(F)(F)F)cc2)Cc2cccc(O)c21 | Non-Toxic |  |  |
| 6.05 µM | O=C1/C(=C/c2ccc(Br)cc2)Cc2cc(O)ccc21 | Non-Toxic |  |  |
| 5.55 µM | O=C1/C(=C/c2ccc(C(F)(F)F)cc2)Cc2cc(O)ccc21 | Non-Toxic |  |  |
| > 10 µM | O=C1/C(=C/c2cccc(C(F)(F)F)c2)Cc2ccccc21 | Non-Toxic |  |  |
| 4.55 µM | O=C1/C(=C/c2cccc(C(F)(F)F)c2)Cc2ccc(O)cc21 | Non-Toxic |  |  |
| > 10 µM | O=C1/C(=C/c2ccccc2C(F)(F)F)Cc2cc(O)ccc21 | Non-Toxic |  |  |
| 4.05 µM | O=C1/C(=C/c2cccc(Br)c2)Cc2cc(O)ccc21 | Non-Toxic |  |  |
| 2.61 µM | O=C1/C(=C/c2ccccc2C(F)(F)F)Cc2ccc(O)cc21 | Non-Toxic |  |  |
| > 10 µM | O=C1/C(=C/c2cccc(OC(F)(F)F)c2)Cc2ccc(O)cc21 | Non-Toxic |  |  |

| IC50 (RAW264.7 [1]) | SMILES | Activity (RAW264.7 [2]) | viability at 24 h, 10 µM [3] | inhibition (Mus musculus) |
| --- | --- | --- | --- | --- |
| > 10 µM | O=C1/C(=C/c2ccc(F)cc2)Cc2cc(O)ccc21 | Non-Toxic |  |  |
| > 10 µM | O=C1/C(=C/c2cccc(F)c2)Cc2ccc(O)cc21 | Non-Toxic |  |  |
| 4 µM | O=C1/C(=C/c2ccccc2Br)Cc2ccc(O)cc21 | Non-Toxic |  |  |
| 3.38 µM | O=C1/C(=C/c2ccccc2OC(F)(F)F)Cc2cc(O)ccc21 | Non-Toxic |  |  |
| > 10 µM | O=C1/C(=C/c2ccc(OC(F)(F)F)cc2)Cc2ccccc21 | Non-Toxic |  |  |
| 3.9 µM | O=C1/C(=C/c2cccc(Br)c2)Cc2ccc(O)cc21 | Non-Toxic |  |  |
| > 10 µM | O=C1/C(=C/c2cccc(C(F)(F)F)c2)Cc2c(O)cccc21 | Non-Toxic |  |  |
| > 10 µM | O=C1/C(=C/c2ccc(OC(F)(F)F)cc2)Cc2c(O)cccc21 | Non-Toxic |  |  |
| > 10 µM | O=C1/C(=C/c2ccc(C(F)(F)F)cc2)Cc2c(O)cccc21 | Non-Toxic |  |  |
| 1.33 µM | O=C1/C(=C/c2ccccc2OC(F)(F)F)Cc2ccc(O)cc21 | Non-Toxic |  | Active |
| > 10 µM | O=C1/C(=C/c2cccc(F)c2)Cc2cc(O)ccc21 | Non-Toxic |  |  |
| > 10 µM | O=C1/C(=C/c2cccc(C(F)(F)F)c2)Cc2cccc(O)c21 | Non-Toxic |  |  |
| > 10 µM | O=C1/C(=C/c2ccc(OC(F)(F)F)cc2)Cc2cc(O)ccc21 | Non-Toxic |  |  |
| 3.25 µM | O=C1/C(=C/c2ccccc2OC(F)(F)F)Cc2cccc(O)c21 | Non-Toxic |  |  |
| 4.62 µM | O=C1/C(=C/c2cccc(OC(F)(F)F)c2)Cc2cccc(O)c21 | Non-Toxic |  |  |
| > 10 µM | O=C1/C(=C/c2cccc(C(F)(F)F)c2)Cc2cc(O)ccc21 | Non-Toxic |  |  |
| > 10 µM | O=C1/C(=C/c2ccccc2F)Cc2ccc(O)cc21 | Non-Toxic |  |  |
| > 10 µM | O=C1/C(=C/c2ccc(C(F)(F)F)cc2)Cc2ccc(O)cc21 | Non-Toxic |  |  |
